Columns and labels:
[1] = biological target: T1, Aromatase (Homo sapiens, UniProt P11511); assay: Inhibition of human placental aromatase expressed in human MCF7 cells using [1beta-3H]-androstenedione as substrate assessed as tritiated H2O release at 10 uM after 1 hr by liquid scintillation counting method in presence of progesterone relative to control; assay type: cell-based
T1 sequence (P11511 whole entry): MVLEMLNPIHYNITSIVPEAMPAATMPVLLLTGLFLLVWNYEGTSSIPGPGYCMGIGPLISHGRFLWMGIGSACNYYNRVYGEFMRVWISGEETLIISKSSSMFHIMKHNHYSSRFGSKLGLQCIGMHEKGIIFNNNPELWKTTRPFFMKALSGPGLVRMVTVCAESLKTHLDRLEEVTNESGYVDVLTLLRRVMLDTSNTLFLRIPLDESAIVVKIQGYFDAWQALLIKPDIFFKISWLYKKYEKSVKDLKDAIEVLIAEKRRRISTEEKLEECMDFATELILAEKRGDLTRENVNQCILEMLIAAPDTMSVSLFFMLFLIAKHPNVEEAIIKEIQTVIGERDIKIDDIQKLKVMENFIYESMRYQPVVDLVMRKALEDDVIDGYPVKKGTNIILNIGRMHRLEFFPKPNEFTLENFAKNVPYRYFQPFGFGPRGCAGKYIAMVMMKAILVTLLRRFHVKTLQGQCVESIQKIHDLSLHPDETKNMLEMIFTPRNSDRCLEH

[2] = biological target: T1, Aromatase; assay: Inhibition of aromatase in human placental microsomes using [1beta-3H]-androstenedione as substrate assessed as tritiated H2O release after 15 mins by liquid scintillation counting method; parameters: species or system Placenta
[3] = biological target: T1, Aromatase; assay: Inhibition of aromatase in human placental microsomes using [1beta-3H]-androstenedione as substrate assessed as tritiated H2O release at 2 uM after 15 mins by liquid scintillation counting method relative to control; parameters: species or system Placenta; conditions: 0.25 h
[4] = biological target: T1, Aromatase; assay: Inhibition of aromatase in human placental microsomes using [1beta-3H]-androstenedione as substrate assessed as tritiated H2O release at 0.5 uM after 15 mins by liquid scintillation counting method relative to control; parameters: species or system Placenta; conditions: 0.25 h
[5] = biological target: T1, Aromatase; assay: Inhibition of human placental aromatase expressed in human MCF7 cells using [1beta-3H]-androstenedione as substrate at 1 uM after 1 hr by liquid scintillation counting method in presence of progesterone relative to control; assay type: cell-based

SMILES: C[C@]12CC[C@H]3[C@@H](CC[C@]45O[C@H]4CCC[C@]35C)[C@@H]1CCC2=O
- inhibition at 10 µM [1]: 64.8%
- IC50 [2]: 530 nM
- inhibition at 2 µM [3]: 85.5%

SMILES: C[C@]12CCC(=O)C=C1CC[C@@H]1C2=CC[C@]2(C)C(=O)CC[C@@H]12
- inhibition at 10 µM [1]: 96.4%
- inhibition at 2 µM [3]: 95.2%

SMILES: C=CC[C@@H]1CC2=CC(=O)C=C[C@]2(C)[C@H]2CC[C@]3(C)C(=O)CC[C@H]3[C@H]12
- inhibition at 10 µM [1]: 94.2%
- inhibition at 2 µM [3]: 94.5%

SMILES: C[C@]12CC[C@H]3C[C@H]3[C@@H]1CC[C@@H]1[C@@H]2CC[C@]2(C)C(=O)CC[C@@H]12
- inhibition at 10 µM [1]: 89.3%
- IC50 [2]: 110 nM
- inhibition at 2 µM [3]: 95.3%

SMILES: C[C@]12CCC=C[C@@H]1CC[C@@H]1[C@@H]2CC[C@]2(C)C(=O)CC[C@@H]12
- inhibition at 10 µM [1]: 56.9%

SMILES: C[C@]12CCCC=C1CC[C@@H]1[C@@H]2CC[C@]2(C)C(=O)CC[C@@H]12
- inhibition at 10 µM [1]: 62.6%

SMILES: C[C@]12C=CC(=O)C=C1C[C@@H](CC1CO1)[C@@H]1[C@@H]2CC[C@]2(C)C(=O)CC[C@@H]12 (some centres undefined)
- inhibition at 10 µM [1]: 72.3%
- inhibition at 2 µM [3]: 76.3%

SMILES: C[C@]12CC[C@H]3O[C@H]3[C@@H]1CC[C@@H]1[C@@H]2CC[C@]2(C)C(=O)CC[C@@H]12
- inhibition at 10 µM [1]: 80.4%

SMILES: C[C@]12CCC(=O)C(O)=C1CC[C@@H]1[C@@H]2CC[C@]2(C)C(=O)CC[C@@H]12 [FORMESTANE]
- inhibition at 0.5 µM [4]: 99.2%
- inhibition at 1 µM [5]: 96.1%

SMILES: C[C@]12CC[C@H]3[C@@H](CC[C@@]45O[C@@H]4CCC[C@]35C)[C@@H]1CCC2=O
- inhibition at 10 µM [1]: 53.2%

SMILES: C[C@]12CCC3=C(OCCO3)C1=CC[C@@H]1[C@@H]2CC[C@]2(C)C(=O)CC[C@@H]12
- inhibition at 2 µM [3]: 55.9%

— ChEMBL document CHEMBL3797024, “Exploring new chemical functionalities to improve aromatase inhibition of steroids” (Bioorg Med Chem, 2016)
